Where a name gives a salt, the structure may show the parent alone.
Assays:
[1] = Single dose plasma pharmacokinetics in healthy volunteers; details: human, in vivo, intravenous infusion 250 mg over 60 min, mean
Method: FIG. 11 is a graph depicting plasma concentrations as a function of time (semi-log) after a single dose administration of a vancomycin dry powder composition (Lot G-11-026-1) or intravenous administration of vancomycin (inhaled vancomycin dose 16 mg, circle; inhaled vancomycin dose 32 mg, triangle; inhaled vancomycin dose 80 mg, square; Intravenous infusion 250 mg over 60 min, circle with line).
In some embodiments, the dry powder vancomycin compositions of the present disclosure may provide an absolute bioavailability of 40% or more. Absolute bioavailability is calculated as AUC0-inf of vancomycin after the vancomycin composition administration divided by AUC0-inf of vancomycin after intravenous administration and adjusted for dose.
Following a single administration of a dry powder vancomycin composition (Lot […]) in eighteen healthy volunteers, a slow absorption phase followed by an elimination phase were observed. The main pharmacokinetic parameters after single dose administration of the inhaled vancomycin composition and intravenous vancomycin are shown in Table 7. AUC0-t refers to the area under the plasma concentration-time curve to the last measurable time point (24 h) calculated by the linear trapezoidal rule. AUC0-inf refers to the area under the concentration-time curve to infinity. Cmax refers to the maximum blood plasma concentration of vancomycin, and Tmax refers to the amount of time necessary to reach maximum blood plasma levels of vancomycin, and fin, refers to the elimination half-life associated with the terminal slope (Kel) of the semilogarithmic drug concentration-time curve, calculated as 0.693/Kel.

[2] = Reconstituted pH of powder; type: physicochemical; details: effect of leucine concentration
Source text: In certain embodiments, the dry powder composition may be reconstituted and the resulting reconstituted powder may have a pH greater than 3.0, preferably greater than 3.5 and most preferably greater than 4.0.
In some embodiments, the delivery efficiency of dry powder vancomycin compositions may be improved through the addition of small amounts of leucine (FIG. 2). […] In addition, the addition of leucine results in powders with more physiologically acceptable pH values. See Table 1 below for the effect of leucine concentration on powder water content, particle size and reconstituted pH.

| SMILES | AUC(0-inf) [1] [ng·h/mL] | Cmax [1] [ng/mL] | Tmax [1] [min] | half-life [1] [min] | AUC(0-t) ([1]; t = 24 h) [ng·h/mL] | Reconstituted pH [2] |
| --- | --- | --- | --- | --- | --- | --- |
| CN[C@H](CC(C)C)C(=O)N[C@H]1C(=O)N[C@@H](CC(N)=O)C(=O)N[C@H]2C(=O)N[C@H]3C(=O)N[C@H](C(=O)N[C@H](C(=O)O)c4cc(O)cc(O)c4-c4cc3ccc4O)[C@H](O)c3ccc(c(Cl)c3)Oc3cc2cc(c3OC2O[C@H](CO)[C@@H](O)[C@H](O)[C@H]2O[C@H]2C[C@](C)(N)[C@H](O)[C@H](C)O2)Oc2ccc(cc2Cl)[C@H]1O (stereo partly drawn) [IV vancomycin, Vancomycin] | 44400 | 10000 | 55.2 | 434 | 41000 | – |
| CN[C@H](CC(C)C)C(=O)N[C@H]1C(=O)N[C@@H](CC(N)=O)C(=O)N[C@H]2C(=O)N[C@H]3C(=O)N[C@H](C(=O)N[C@H](C(=O)O)c4cc(O)cc(O)c4-c4cc3ccc4O)[C@H](O)c3ccc(c(Cl)c3)Oc3cc2cc(c3OC2O[C@H](CO)[C@@H](O)[C@H](O)[C@H]2O[C@H]2C[C@](C)(N)[C@H](O)[C@H](C)O2)Oc2ccc(cc2Cl)[C@H]1O (stereo partly drawn) [API, Vancomycin hydrochloride] | – | – | – | – | – | 3.0 |

Source: patent publication US10561608B2, “Dry powder Vancomycin compositions and associated methods” (SAVARA INC., priority 2011, dated 2020)
